Among the test systems are A498 renal; A549 NSCLC; BT-549 breast; DU-145 prostate; HCT-15 colon; IGROV1 ovarian; K-562 leukemia; M14 melanoma; MALME-3M melanoma; MDA-N; NCI-H522 lung; OVCAR-4 ovarian; PC-3 prostate; SK-MEL-5 melanoma; SK-OV-3 ovarian; SNB-75 CNS; SW-620 colon; T-47D breast; UACC-257 melanoma; UO-31 renal.
What all share (assay): DTP human tumour cell line panel, 48 h

Structures are written as SMILES.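 In this assay, cells in 96-well plates receive the compound at five concentrations for 48 hours. Endpoints are linearly interpolated between the surrounding concentrations. TGI: concentration producing complete growth inhibition.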 Bounds are passed on as bounds.

By TGI is commonly meant the concentration at which net growth stops. Low readings indicate greater sensitivity of the cells, high ones lower sensitivity of the cells. With `C/C(=N/NC(=S)Nc1ccc([N+](=O)[O-])cc1)c1cccc(/C(C)=N\NC(=S)Nc2ccc([N+](=O)[O-])cc2)n1`, the TGI in the test on A498 renal is 9.74 µM; in the test on A549 NSCLC, 11.4 µM; in the test with BT-549 breast, 2360 nM; in the test on DU-145 prostate, more than 37.7 µM; in the test on HCT-15 colon, 2670 nM; with IGROV1 ovarian, 8.11 µM. Also, the TGI with K-562 leukemia is more than 39.4 µM; with M14 melanoma it was 2700 nM; with MALME-3M melanoma, 9.13 µM; in the test on MDA-N, 15.1 µM; with NCI-H522 lung, 21.2 µM; in the test with OVCAR-4 ovarian, 49.4 µM. Further, the TGI in the test on PC-3 prostate was 18.7 µM; with SK-MEL-5 melanoma, 7.29 µM; with SK-OV-3 ovarian, 10.7 µM; in the test on SNB-75 CNS it was more than 44.3 µM; with SW-620 colon, 16.1 µM; in the test on T-47D breast, 24.2 µM. Besides, the TGI came out at 13.1 µM with UACC-257 melanoma and 4.97 µM in the test on UO-31 renal.

Regarding `CC(NNC(=O)c1ccncc1)c1ccc(F)cc1` (stereo not given), the concentration for total growth inhibition (TGI) in the test on A498 renal is more than 100 µM; in the test on A549 NSCLC, more than 100 µM; with BT-549 breast, more than 100000 nM; in the test with DU-145 prostate it was more than 100 µM; in the test on HCT-15 colon it was more than 100000 nM; in the test on IGROV1 ovarian, more than 100 µM. Also, the TGI in the test on K-562 leukemia is more than 100 µM; in the test with M14 melanoma, more than 100000 nM; with MALME-3M melanoma, more than 100 µM; in the test on MDA-N it was more than 100 µM; in the test with NCI-H522 lung, more than 100 µM; in the test on OVCAR-4 ovarian it was more than 100 µM. Moreover, the concentration for total growth inhibition (TGI) with PC-3 prostate, in the test on SK-MEL-5 melanoma, in the test with SK-OV-3 ovarian, with SNB-75 CNS, with SW-620 colon and in the test on T-47D breast was more than 100 µM each time. Further, the TGI with UACC-257 melanoma and in the test on UO-31 renal was more than 100 µM in each case.

The record behind these values is PubChem BioAssay (NCI).
